Measured values published in patent US10493060B2, “Spirocyclic compounds” (ZENO ROYALTIES & MILESTONES, LLC, priority 2015, dated 2019).

Experiments:
Activated ERK1 = Activated ERK1 (Homo sapiens (Human), UniProt P27361); assay: Active ERK1 kinase assay (Mobility Shift Assay); assay type: biochemical
Description: (§1) Activated ERK1 and ERK2 activity was determined in a Mobility Shift Assay (MSA) format as follows: Compound and kinase solution were prepared with assay buffer (20 mM HEPES, 0.01% Triton X-100, 2 mM DTT, pH7.5) and mixed and incubated in for 30 mins at rt. ERK1 & ERK2 were then activated by the addition of Fl-Substrate, ATP and metal solution and incubated for 1 h at rt. After 1 h, the reaction was terminated by the addition of […] of Termination Buffer (QuickScout Screening Assist MSA; Carna Biosciences) to the well. The reaction mixture was applied to LabChip™ system (PerkinElmer), and the product and substrate peptide peaks were separated, analyzed and quantitated. The kinase reaction is evaluated by the product ratio calculated from peak heights of product (P) and substrate (S) peptides (P/(P+S)).

A375 (melanoma) cells = assay: Proliferation assay (CellTiter-Glo), A375; assay type: cell-based; settings: Homo sapiens, A-375, 72 h, 3 days
Description: (§2) A375 (melanoma), Colo-205 (colon cancer), Miapaca (pancreatic), HPAFII (pancreatic), sNF02.0 (neurofibromatosis type 1), sNF96.2 (neurofibromatosis type 1) and 8505 (Thyroid) cells were grown and maintained in RPMI-1640 medium containing 100 U/mL penicillin-streptomycin and 10% fetal bovine serum. Cells were in growth medium in 96-well opaque-walled clear bottom plates and incubated the in the CO2 incubator overnight before treatment. Cells were treated with compounds diluted in DMSO and a 10 point 3-fold serial dilutions were done. Plates were placed in 37° C., 5% CO2 for to incubate for 3 days. Before they were developed by adding 100 μL of CellTiter-Glo reagent (Promega) to the assay plate, plates were shaken briefly for 2 mins and allowed to incubate at rt for 10 mins. The bottom of the plates was pasted with white back seal and luminescence was recorded with Flexstation3 with setting of luminescence, integration time 500 ms.

[1] = tested on: Colo-205 (colon cancer) cells; assay: Proliferation assay (CellTiter-Glo), Colo-205; assay type: cell-based; settings: Homo sapiens, COLO 205, 72 h, Colo205 cells, 3 days
Description: as §2

[2] = tested on: Mia Paca-2 (pancreatic) cells; assay: Proliferation assay (CellTiter-Glo), Mia Paca-2; assay type: cell-based; settings: Homo sapiens, 72 h, Mia Paca-2 cells, 3 days
Description: as §2

[3] = tested on: HPAFII (pancreatic) cells; assay: Proliferation assay (CellTiter-Glo), HPAFII; assay type: cell-based; settings: Homo sapiens, HPAF-II, 72 h, 3 days
Description: as §2

[4] = tested on: sNF02.2 (neurofibromatosis type 1) cells; assay: Proliferation assay (CellTiter-Glo), sNF02.2; assay type: cell-based; settings: 72 h, sNF02.2 cells, 3 days
Description: as §2

[5] = tested on: sNF96.2 (neurofibromatosis type 1) cells; assay: Proliferation assay (CellTiter-Glo), sNF96.2; assay type: cell-based; settings: 72 h, sNF96.2 cells, 3 days
Description: as §2

8505C (Thyroid) cells = assay: Proliferation assay (CellTiter-Glo), 8505C; assay type: cell-based; settings: Homo sapiens, 72 h, 8505C cells, 3 days
Description: as §2

Activated ERK2 = Activated ERK2 (Homo sapiens (Human), UniProt P28482); assay: Active ERK2 kinase assay (Mobility Shift Assay); assay type: biochemical
Sequence of Activated ERK2 (P28482 whole entry): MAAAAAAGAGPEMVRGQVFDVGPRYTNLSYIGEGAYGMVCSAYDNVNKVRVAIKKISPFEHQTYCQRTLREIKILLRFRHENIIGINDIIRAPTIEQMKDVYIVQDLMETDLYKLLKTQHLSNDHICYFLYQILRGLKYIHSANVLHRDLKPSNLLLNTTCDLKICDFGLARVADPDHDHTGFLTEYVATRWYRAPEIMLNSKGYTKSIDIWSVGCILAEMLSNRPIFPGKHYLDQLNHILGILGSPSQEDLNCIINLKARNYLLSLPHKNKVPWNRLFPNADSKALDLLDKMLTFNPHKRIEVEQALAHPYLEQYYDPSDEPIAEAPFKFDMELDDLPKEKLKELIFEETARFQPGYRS
Description: as §1

Sequence of Activated ERK1 (P27361 whole entry): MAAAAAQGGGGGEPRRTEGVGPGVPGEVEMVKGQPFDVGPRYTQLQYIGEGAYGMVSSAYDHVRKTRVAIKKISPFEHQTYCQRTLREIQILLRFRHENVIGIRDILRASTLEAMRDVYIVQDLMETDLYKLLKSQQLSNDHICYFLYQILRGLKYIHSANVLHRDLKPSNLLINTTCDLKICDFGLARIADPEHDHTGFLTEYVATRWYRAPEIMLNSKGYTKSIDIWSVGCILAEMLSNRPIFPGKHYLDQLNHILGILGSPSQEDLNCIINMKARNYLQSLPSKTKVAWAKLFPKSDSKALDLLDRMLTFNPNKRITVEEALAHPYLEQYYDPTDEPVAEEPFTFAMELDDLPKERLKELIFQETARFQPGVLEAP

Row | Compound | IC50 (Activated ERK1) | IC50 (A375 (melanoma) cells) | IC50 [1] | IC50 [2] | IC50 (Activated ERK2) | IC50 [3] | IC50 [4] | IC50 [5] | IC50 (8505C (Thyroid) cells)
1 | CC(C)Nc1cc(-c2c[nH]c(C(=O)N[C@H](CO)c3cccc(Cl)c3)c2)c(Cl)cn1 [BVD-523] | ≤ 0.05 µM | ≤ 0.5 µM | ≤ 0.5 µM | ≤ 0.5 µM |  | ≤ 0.5 µM | ≥ 1 µM | 0.5 to 1 µM | ≥ 1 µM
2 | Cc1nnc(-c2ccc(C3=CCN(C(=O)CN4CC[C@]5(CCN(c6ccc7[nH]nc(-c8ccc(OC(C)C)nc8)c7c6)C5=O)C4)CC3)cc2)o1 [Example 17, (S)-2-(3-(6-Isopropoxypyridin-3-yl)-1H-indazol-5-yl)-7-(2-(4-(4-(5-methyl-1,3,4-oxadiazol-2-yl)phenyl)-3,6-dihydropyridin-1(2H)-yl)-2-oxoethyl)-2,7-diazaspiro[4.4]nonan-1-one] | ≤ 0.05 µM | ≤ 0.5 µM | ≤ 0.5 µM |  | ≤ 0.05 µM |  |  |  | 
3 | CCNc1nnc(-c2ccc(C3=CCN(C(=O)CN4CC[C@]5(CCN(c6ccc7[nH]nc(-c8ccc(OC(C)C)nc8)c7c6)C5=O)C4)CC3)cc2)o1 [Example 18, (S)-7-(2-(4-(4-(5-(Ethylamino)-1,3,4-oxadiazol-2-yl)phenyl)-3,6-dihydropyridin-1(2H)-yl)-2-oxoethyl)-2-(3-(6-isopropoxypyridin-3-yl)-1H-indazol-5-yl)-2,7-diazaspiro[4.4]nonan-1-one] | ≤ 0.05 µM | ≤ 0.5 µM | ≤ 0.5 µM |  | ≤ 0.05 µM |  |  |  | 
4 | Cn1cnc(-c2ccc(C3=CCN(C(=O)CN4CC[C@]5(CCN(c6ccc7[nH]nc(-c8ccnc(C(F)(F)F)c8)c7c6)C5=O)C4)CC3)cc2)n1 [Example 20, (S)-7-(2-(4-(4-(1-Methyl-1H-1,2,4-triazol-3-yl)phenyl)-3,6-dihydropyridin-1 (2H)-yl)-2-oxoethyl)-2-(3-(2-(trifluoromethyl)pyridin-4-yl)-1H-indazol-5-yl)-2,7-diazaspiro[4.4]nonan-1-one] | ≤ 0.05 µM | ≤ 0.5 µM | ≤ 0.5 µM |  | ≤ 0.05 µM |  |  |  | 
5 | CC(C)Oc1ccc(-c2n[nH]c3ccc(N4CC[C@]5(CCN(CC(=O)N6CC=C(c7ccc(-c8cn(C)nn8)cc7)CC6)C5)C4=O)cc23)cn1 [Example 15, (S)-2-(3-(6-isopropoxypyridin-3-yl)-1H-indazol-5-yl)-7-(2-(4-(4-(1-methyl-1H-1,2,3-triazol-4-yl)phenyl)-3,6-dihydropyridin-1 (2H)-yl)-2-oxoethyl)-2,7-diazaspiro[4.4]nonan-1-one] | ≤ 0.05 µM | ≤ 0.5 µM | ≤ 0.5 µM |  | ≤ 0.05 µM |  |  |  | 
6 | Cc1ccc(-c2n[nH]c3ccc(N4CCC5(CCN(CC(=O)N6CC=C(c7ccc(-c8ncn(C)n8)cc7)CC6)C5)C4=O)cc23)cn1 (stereo not drawn) [Example 7, 7-(2-(4-(4-(1-Methyl-1H-1,2,4-triazol-3-yl)phenyl)-3,6-dihydropyridin-1(2H)-yl)-2-oxoethyl)-2-(3-(6-methylpyridin-3-yl)-1H-indazol-5-yl)-2,7-diazaspiro[4.4]nonan-1-one] | ≤ 0.05 µM | ≤ 0.5 µM | ≤ 0.5 µM |  | ≤ 0.05 µM |  |  |  | 
7 | Cn1cnc(-c2ccc(C3=CCN(C(=O)CN4CC[C@]5(CCN(c6ccc7[nH]nc(C8CCNC(C(F)(F)F)C8)c7c6)C5=O)C4)CC3)cc2)n1 (stereo partly drawn) [Example 12, (5S)-7-(2-(4-(4-(1-Methyl-1H-1,2,4-triazol-3-yl)phenyl)-3,6-dihydropyridin-1(2H)-yl)-2-oxoethyl)-2-(3-(2-(trifluoromethyl)piperidin-4-yl)-1H-indazol-5-yl)-2,7-diazaspiro[4.4]nonan-1-one] | ≤ 0.05 µM | 0.5 to 1 µM | ≤ 0.5 µM |  | ≤ 0.05 µM |  |  |  | 

The next lines start with results.

Row | IC50 (Activated ERK1) | IC50 (A375 (melanoma) cells) | IC50 [1] | IC50 [2] | IC50 (Activated ERK2) | Compound | IC50 [3] | IC50 [4] | IC50 [5] | IC50 (8505C (Thyroid) cells)
8 | ≤ 0.05 µM | ≤ 0.5 µM |  |  | ≤ 0.05 µM | CC(C)Oc1cc(-c2n[nH]c3ccc(N4CC[C@]5(CCN(CC(=O)N6CC=C(c7ccc(-c8ncn(C)n8)cc7)CC6)C5)C4=O)cc23)ccn1 [Example 30, (S)-2-(3-(2-Isopropoxypyridin-4-yl)-1H-indazol-5-yl)-7-(2-(4-(4-(1-methyl-1H-1,2,4-triazol-3-yl)phenyl)-3,6-dihydropyridin-1(2H)-yl)-2-oxoethyl)-2,7-diazaspiro[4.4]nonan-1-one] |  |  |  | 
9 |  | 0.5 to 1 µM | ≤ 0.5 µM |  |  | Cn1nccc1Nc1nccc(-c2ccn([C@H](CO)c3ccc(Cl)c(F)c3)c(=O)c2)n1 [GDC-0994] |  |  |  | 
10 | ≤ 0.05 µM | ≤ 0.5 µM |  |  | ≤ 0.05 µM | O=C(CN1CC[C@]2(CCN(c3ccc4[nH]nc(-c5ccnc(C(F)(F)F)c5)c4c3)C2=O)C1)N1CC=C(c2ccc(-c3ncc(F)cn3)cc2)CC1 [Example 28, (S)-7-(2-(4-(4-(5-Fluoropyrimidin-2-yl)phenyl)-3,6-dihydropyridin-1(2H)-yl)-2-oxoethyl)-2-(3-(2-(trifluoromethyl)pyridin-4-yl)-1H-indazol-5-yl)-2,7-diazaspiro[4.4]nonan-1-one] |  |  |  | 
11 |  | ≤ 0.5 µM |  | ≤ 0.5 µM | ≤ 0.05 µM | Cn1cnc(-c2ccc(C3=CCN(C(=O)CN4CC[C@]5(CCN(c6ccc7[nH]nc(-c8ccnc(C9(C(F)(F)F)CC9)c8)c7c6)C5=O)C4)CC3)cc2)n1 [Example 38, (S)-7-(2-(4-(4-(1-Methyl-1H-1,2,4-triazol-3-yl)phenyl)-3,6-dihydropyridin-1 (2H)-yl)-2-oxoethyl)-2-(3-(2-(1-(trifluoromethyl)cyclopropyl)pyridin-4-yl)-1H-indazol-5-yl)-2,7-diazaspiro[4.4]nonan-1-one] | ≤ 0.5 µM | ≥ 1 µM | 0.5 to 1 µM | ≥ 1 µM
12 | ≤ 0.05 µM | ≤ 0.5 µM |  | ≤ 0.5 µM | ≤ 0.05 µM | Cn1cnc(-c2ccc(C3=CCN(C(=O)CN4CC[C@]5(CCN(c6ccc7[nH]nc(-c8ccc(F)cc8)c7c6)C5=O)C4)CC3)cc2)n1 [Example 29, (S)-2-(3-(4-Fluorophenyl)-1H-indazol-5-yl)-7-(2-(4-(4-(1-methyl-1H-1,2,4-triazol-3-yl)phenyl)-3,6-dihydropyridin-1(2H)-yl)-2-oxoethyl)-2,7-diazaspiro[4.4]nonan-1-one] | ≤ 0.5 µM | ≤ 0.5 µM | ≤ 0.5 µM | 0.5 to 1 µM
13 | ≤ 0.05 µM | ≤ 0.5 µM |  |  | ≤ 0.05 µM | CC(C)Oc1ccc(-c2n[nH]c3ccc(N4CC[C@]5(CCN(CC(=O)N6CC=C(c7ccc(-c8ncccn8)cc7)CC6)C5)C4=O)cc23)cn1 [Example 22, (S)-2-(3-(6-Isopropoxypyridin-3-yl)-1H-indazol-5-yl)-7-(2-oxo-2-(4-(4-(pyrimidin-2-yl)phenyl)-3,6-dihydropyridin-1(2H)-yl)ethyl)-2,7-diazaspiro[4.4]nonan-1-one] |  |  |  | 
14 | ≥ 0.25 µM | ≥ 1 µM |  |  | ≥ 0.25 µM | CC(C)Oc1ccc(-c2n[nH]c3ccc(N4CC[C@]5(CCN(CC(=O)N6CCC(F)(c7ccc(-c8ncn(C)n8)cc7)CC6)C5)C4=O)cc23)cn1 [Example 27] |  |  |  | 
15 | 0.05 to 0.25 µM | ≥ 1 µM |  |  | ≤ 0.05 µM | CC(C)Oc1ccc(-c2n[nH]c3ccc(N4CC[C@]5(CCN(CC(=O)N6CCC(C78CC(c9ncn(C)n9)(C7)C8)CC6)C5)C4=O)cc23)cn1 [Example 24, (S)-2-(3-(6-Isopropoxypyridin-3-yl)-1H-indazol-5-yl)-7-(2-(4-(3-(1-methyl-1H-1,2,4-triazol-3-yl)bicyclo[1.1.1]pentan-1-yl)piperidin-1-yl)-2-oxoethyl)-2,7-diazaspiro[4.4]nonan-1-one] |  |  |  | 
16 | ≥ 0.25 µM | ≥ 1 µM |  |  | 0.05 to 0.25 µM | CC(C)Oc1ccc(-c2n[nH]c3ccc(N4CC[C@]5(CCN(CC(=O)N6CC=C(c7ccc(-c8ncccn8)cn7)CC6)C5)C4=O)cc23)cn1 [Example 25, (S)-2-(3-(6-Isopropoxypyridin-3-yl)-1H-indazol-5-yl)-7-(2-oxo-2-(5-(pyrimidin-2-yl)-3′,6′-dihydro-[2,4′-bipyridin]-1′(2′H)-yl)ethyl)-2,7-diazaspiro[4.4]nonan-1-one] |  |  |  | 
17 | ≤ 0.05 µM | ≤ 0.5 µM | ≤ 0.5 µM | ≤ 0.5 µM |  | O=C(Nc1ccc2[nH]nc(-c3ccncc3)c2c1)[C@@H]1CCN(CC(=O)N2CCN(c3ccc(-c4ncccn4)cc3)CC2)C1 [SCH772984] | ≤ 0.5 µM | ≤ 0.5 µM | 0.5 to 1 µM | 0.5 to 1 µM
